Measured values from ChEMBL document CHEMBL1121758, “(-)-4-Hydroxymorphinanones: their synthesis and analgesic activity” (1981).
Activity calls are given as the source filed them. No cut-off for these calls is given here.

Columns and labels:
Rattus norvegicus [1] = experiment: Antagonist activity (administered subcutaneously) determined by rat tail flick test; format: functional; details: sc
Mus musculus = species: Mus musculus; experiment: Antinociceptive activity determined in acetic acid induced mouse writhing test; format: functional
Rattus norvegicus [2] = experiment: Agonist activity (administered subcutaneously) determined by rat tail flick test; format: functional; details: sc
Rattus norvegicus [3] = experiment: Antagonist activity (administered subcutaneously) determined by rat tail flick test; Inactive at 10 mg/kg; format: functional, organism-based; design: dose 10 mg/kg

Compound	ED50 (Rattus norvegicus [1]) [mg/kg]	ED50 (Mus musculus) [mg/kg]	ED50 (Rattus norvegicus [2]) [mg/kg]	ED50 (Rattus norvegicus [3])
O=C1CCC2C3Cc4ccc(O)cc4C2(CCN3CC2CC2)C1 (centres undefined)	2.3			
CN1CCC23CC(=O)CCC2C1Cc1cccc(O)c13 (centres undefined)		0.18	19.2	
O=C1CCC2C3Cc4cccc5c4C2(CCN3CC2CC2)C1O5 (centres undefined)	12.5	0.06		
C=CCN1CC[C@]23c4c5ccc(O)c4O[C@H]2[C@@H](O)C=C[C@H]3[C@H]1C5 [NALORPHINE]	0.86	1.22		
O=C1CCC2C3Cc4cccc(O)c4C2(CCN3CC2CC2)C1 (centres undefined)		0.64		inactive
COc1cccc2c1C13CCN(C)C(C2)C1CCC(=O)C3 (centres undefined)		0.21		
CN1CCC23CC(=O)CCC2C1Cc1ccc(O)cc13 (centres undefined)		0.15	20	
CN1CC[C@]23c4c5ccc(O)c4O[C@H]2[C@@H](O)C=C[C@H]3[C@H]1C5.CN1CC[C@]23c4c5ccc(O)c4O[C@H]2[C@@H](O)C=C[C@H]3[C@H]1C5.O=S(=O)(O)O		0.8	7.3	
